Test results: patent US20190076467A1, “ANTIVIRAL CONJUGATES OF P[…] AND ANTIVIRAL DRUG” (priority 2015, published 2019)

Key:
Ebola virus = type: cell-based, Ebola Zaire
Measles = type: cell-based
[1] = cited from earlier work

Row | Structure (SMILES) | Effect on proliferation of Ebola virus (qRT-PCR cycle number) (Ebola virus) | Activity against measles infectivity (Measles) | pKa [1]
1 | NC(=O)c1ncn([C@@H]2O[C@H](CO)[C@@H](O)[C@H]2O)n1 [Ribavirin] | no measurable effect | no activity | –
2 | C=CC(=O)O [acrylic acid] | – | – | 4.5
3 | C=C(C)C(=O)O [methacrylic acid] | – | – | 6.5
